Experiment [1] has as its target T1, NanoLuc-BTK fusion protein (Homo sapiens, UniProt Q06187).
T1 construct: host or cells: HEK 293 cells
Nature of the experiment: NanoBRET target engagement assay in HEK 293 cells. Format: cell-based. The note with it: tracer K-5, 2 hours. An excerpt: Bioluminescence Resonance Energy Transfer (BRET) is used to quantitatively measure the interaction between proteins in live cells. The NanoBRET Target Engagement (TE) Assay ((Promega, Cat #N2500)) measures the apparent binding affinity of test compounds at select kinase proteins by competitive displacement of a fluorescent NanoBRET kinase-ligand tracer (K-5), from a target kinase fused to a NanoLuc luciferase protein within intact cells. To determine whether test compounds can bind BTK, a fixed concentration of NanoBRET tracer is added to cells expressing the NanoLuc-BTK fusion protein, thereby generating a BRET reporter complex. Application of competitive test compounds results in a dose-dependent decrease in NanoBRET™ energy transfer, which allows quantitation of apparent intracellular affinity of the BTK target protein for the test compound.
In order to evaluate the binding between BTK and test compounds, an intracellular drug displacement assay was performed. […] The plates were then analyzed with a Biotek Synergy Neo2 plate reader equipped with NanoBRET 618 filters (donor 450 nm/8 nm BP and acceptor 600 nm LP). […] BRET ratios are expressed as milliBRET units (mBU), where 1 mBU corresponds to the corrected BRET ratio multiplied by 1000.
In general terms: BRET reads energy transfer from a luciferase to a nearby fluorophore.

For experiment [2], the target named is T2, BTK (Homo sapiens, UniProt Q06187). Nature of the experiment: BTK washout experiment. Format: biochemical. The note with it: 6-h incubation, 50 nM BTK, 280 nM compound, 400-fold dilution. How it is done:
After a 3-h incubation of 40 nM BTK in the presence of 296 nM of compound I-A1, a 400-fold dilution was performed to remove excess inhibitor.
After a 6-h incubation of 50 nM BTK in the presence of 280 nM of compound 3A-6, a 400-fold dilution was performed to remove excess inhibitor.
By way of contrast, a “washout” experiment performed with ARQ-531 gives a very different result, because this compound lacks a warhead and is known to inhibit BTK reversibly. After a 6-h incubation of 50 nM BTK in the presence of 177 nM of ARQ-531, a 400-fold dilution was performed to remove excess inhibitor. […] This indicates to one of ordinary skill in the art that the enzyme was not inhibited irreversibly during the incubation with ARQ-531.

The target of experiment [3] is T3, His-tagged BTK kinase domain (Homo sapiens, UniProt Q06187).
T3 construct: Intact His-tagged BTK kinase domain (SOURCE)(10 μM) was incubated
The experiment is described as follows: Mass spectral analysis of tryptic digest of BTK kinase domain. Format: binding. The note with it: 10 μM BTK KD, 10 μM compound, 45 min; tryptic peptide 467-487. How it is done: A protein kinase that is inhibited by compound and/or pharmaceutically acceptable salt of the present disclosure may be subjected to mass spectral analysis to assess the formation of permanent, irreversible covalent adducts. […] Such methods identify permanent, irreversible covalent protein adducts by observing a mass peak that corresponds to the mass of a control sample plus the mass of an irreversible adduct.
After the incubation time, the reactions were quenched by acetone precipitation and the pellet was re-dissolved in 8 M Urea. […] The BTK protein band was then excised and subjected to an in-gel trypsin digest by reducing the protein (5 mM DTT), alkylating the thiols with iodoacetamide (15 mM), and then incubating the protein gel band with trypsin in a 37 C water bath (4 hours). The tryptic digestion was then quenched by the addition of trifluoroacetic acid, and peptides were removed from the gel band by sonicating with increasing amounts of acetonitrile (0%, 30%, & 60%). Peptides were then purified using C18 ziptips, spotted on the MALDI target plate with α-cyano-4-hydroxycinnamic acid as the desorption matrix (10 mg/mL in 0.10% TFA:Acetonitrile 50:50), and analyzed in reflectron mode.

The target in experiment [4] is T2, BTK. The experiment is described as follows: In vitro BTK inhibition (no preincubation). Format: biochemical. The note with it: Table 17.
Experiment [5] concerns the target T2, BTK. The experiment is described as follows: BTK irreversible inhibition, enzyme kinetic analysis. Format: biochemical. The note with it: 500 μM ATP.

The values below come from patent US12559454B2, “Benzenesulfonamide derivatives and uses thereof” (2692372 Ontario, Inc., priority 2019, dated 2026).

In general, pIC50 refers to −log10 of the IC50, conventionally taken in molar units.

pIC50: −log10 of the molar value.

T2 sequence (Q06187 whole entry, species assumed): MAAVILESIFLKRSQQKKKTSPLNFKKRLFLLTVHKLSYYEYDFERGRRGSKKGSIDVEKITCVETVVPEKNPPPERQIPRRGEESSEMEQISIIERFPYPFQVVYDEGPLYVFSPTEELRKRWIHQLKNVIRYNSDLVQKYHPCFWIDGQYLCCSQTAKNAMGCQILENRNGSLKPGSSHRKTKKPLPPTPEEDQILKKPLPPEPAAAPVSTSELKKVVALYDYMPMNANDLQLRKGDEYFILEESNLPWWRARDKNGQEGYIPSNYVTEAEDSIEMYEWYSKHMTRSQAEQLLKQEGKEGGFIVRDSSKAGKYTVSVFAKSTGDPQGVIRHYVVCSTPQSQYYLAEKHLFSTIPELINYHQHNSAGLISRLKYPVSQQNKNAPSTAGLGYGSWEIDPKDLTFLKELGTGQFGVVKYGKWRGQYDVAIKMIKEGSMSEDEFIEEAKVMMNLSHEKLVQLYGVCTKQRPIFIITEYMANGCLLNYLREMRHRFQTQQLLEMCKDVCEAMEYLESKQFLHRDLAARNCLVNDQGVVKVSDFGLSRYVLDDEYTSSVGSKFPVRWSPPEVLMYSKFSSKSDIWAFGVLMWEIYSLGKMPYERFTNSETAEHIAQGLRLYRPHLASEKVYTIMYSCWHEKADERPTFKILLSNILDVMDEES
T3 sequence (Q06187 402-655 limits assumed): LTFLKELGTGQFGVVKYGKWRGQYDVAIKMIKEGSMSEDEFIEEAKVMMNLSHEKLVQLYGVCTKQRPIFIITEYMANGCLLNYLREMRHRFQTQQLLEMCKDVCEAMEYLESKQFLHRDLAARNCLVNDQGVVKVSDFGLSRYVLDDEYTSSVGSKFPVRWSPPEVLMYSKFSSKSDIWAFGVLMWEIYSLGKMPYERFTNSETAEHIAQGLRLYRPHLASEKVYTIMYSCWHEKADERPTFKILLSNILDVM
T1 sequence (Q06187 whole entry, the tested form may be a part): as the sequence (Q06187 whole entry, species assumed) above

Turning to `COc1c(F)c(F)c(F)c(F)c1S(=O)(=O)NCCn1nc(-c2ccc(Oc3ccccc3)cc2)c2c(N)ncnc21` [Compound 3A-6, N-(2-(4-amino-3-(4-phenoxyphenyl)-1H-pyrazolo[3,4-d]pyrimidin-1-yl)ethyl)-2,3,4,5-tetrafluoro-6-methoxybenzenesulfonamide], the pIC50 in experiment [1] was 7.03; against BTK [4] it was 6.00 to 7.00; on BTK [5] (no pre-incubation, read-out: IC50 against BTK not pre-incubated), 6.96; on BTK [5] (after 3-h incubation of 50 nM BTK with 280 nM compound, read-out: IC50 against pre-incubated BTK), 7.86. Besides, the inhibition at 0.28 µM on BTK [2] (read-out: enzyme inhibited irreversibly) was found to be 87%. Moreover, at BTK [2] (relative to DMSO, read-out: residual activity of the enzyme), the remaining activity at 0.28 µM worked out at 13%. Also, in experiment [3], the C481 covalent modification entry was “covalent modification and ✓”.
